Data reported in patent US20170240592A1, “GADD45BETA/MKK7 INHIBITOR FOR THE TREATMENT OF A RESISTANT HAEMATOLOGICAL MALIGNANCY” (IMPERIAL INNOVATIONS LIMITED, priority 2014, published 2017).

Legend:
tolerability in mice = assay type: in vivo
Description: Values denote means±SD (n=3) or SEM (n=5), as indicated. MW, molecular weight.

[1] = tested on: drug-resistant multiple myeloma cell lines; test: [3H]thymidine incorporation assay, sensitive and drug-resistant multiple myeloma cell lines; assay type: cell-based, human; conditions: 6-day treatment; MM1.R, AMO-1a, MM1/R10R, U266/R10R
Description: Matching pairs of sensitive (parental) and drug-resistant multiple myeloma cell lines were as follows: MM1.S (parental) and MM1.R (dexamethasone-resistant); AMO-1 (parental) and AMO-1a (bortezomib-resistant); MM1.S (parental) and MM1/R10R (lenalidomide-resistant); U266 (parental) and U266/R10R (lenalidomide-resistant). […] For clarity purposes, the same data for the parental MM1.S MM multiple myeloma cell line are shown as control for the dexamethasone-resistant (MM1.R) MM multiple myeloma cell line and the lenalidomide-resistant (MM1/R10R) MM multiple myeloma cell line.

[2] = tested on: medullary KMS-12 multiple myeloma xenografts; assay type: in vivo, NOD/SCID mice; conditions: 29 mg/kg/day intermittent infusion over 8 weeks; experimental end-point day 161
Experimental: Mice were housed in the animal facilities at Hammersmith. All experiments were conducted under PPL 70/6874, after approval by the Imperial College Ethical Review Process and the Home Office. For the plasmacytoma model, NOD/SCID mice (NOD.CB17-Prkdc^scid/IcrCrl; Charles River) were injected subcutaneously with 1.0×10^7 U266 or KMS-11 multiple myeloma cells, and then randomized into treatment groups and treated by infusion, as shown. Tumour volumes were measured as described in Mauro et al., 2011. For the orthotopic multiple myeloma model, mice of the same strain were sub-lethally irradiated and then injected intravenously with 1.0×10^7 KMS-12-BM multiple myeloma cells, as described in Rabin et al., 2007). […] Animals were monitored daily and euthanized on day 161 of treatment start or when they reached any of the end-points in the PPL. […]
For experiments in the medullary xenograft model, 6 to 8-week old male NOD/SCID mice (NOD.CB17-Prkdc^scid/IcrCrl; Charles River) were sub-lethally irradiated (3.50 Gy) and, then, injected intraperitoneally with purified anti-CD122 monoclonal antibody (200 μg/mouse), as above. […] Animals were monitored daily for weight loss and other clinical signs of medullary disease, such as hind limb paralysis and behavioural changes, and euthanized with CO2 on day 161 of treatment start or when the disease severity reached any of the end-points stated in the PPL. […]

KMS-12 cells = test: [3H]thymidine incorporation assay, DTP3 and bortezomib as single agents or in combination, KMS-12
Experimental: Treatments with DTP3 were for 6 days; bortezomib was added to the cell cultures 48 hr prior to the measurement of cell viability. For the combination treatment, DTP3 was used at the concentrations of 3 nM in U266 cells and of 10 nM in KMS-12 cells, whereas bortezomib was used at increasing concentrations, as shown.
Viability data from the experiment shown in FIG. 12 were converted into values representing the fraction of cells affected (FA) equaling 0.5 in the drug-treated cultures compared with untreated cultures, and the interaction of DTP3 with bortezomib was analysed according to the Chou-Talalay method (Chou, 2006). Also shown are the drug concentrations giving the FA value of 0.5 and the description of the CI. Based on the Chou-Talalay equation (Chou, 2006), synergy is present when the CI is less than 1.0 (where values between 0.3 and 0.7 denote synergism, and values between 0.1 and 0.3 denote strong synergism); the combination is additive when CI equals 1.0, and antagonistic when it is more than 1.0 (Chou, 2006).
[^3H]Thymidine incorporation assays were performed using standard protocols (Griffiths and Sundaram, 2011). […] At 24, 72 or 144 hr, cells were incubated for an additional 16 hr with 0.037 MBq/well of [^3H]thymidine (Amersham), and then harvested onto glass fibre filter mats using a 96-well plate automated Tomtec cell harvester (Receptor Technologies) and analysed by liquid scintillation spectroscopy with a LKB Wallac Trilux Microbeta 3 b-counter (PerkinElmer). Values were expressed as the percentage of the counts per minute (cpm) measured in the treated cultures relative to the cpm measured in the respective untreated cultures. […]
The activities of DTP3 and bortezomib in the U266 and KMS-12 myeloma cell lines, both as single agents and in combination, were determined using [^3H]thymidine incorporation assays, performed as described above in “Cell Proliferation, Cell Death, and Apoptosis Assays”. The IC50 values of bortezomib as single agent were determined at 48 hr using 9 concentrations of drug, ranging from 0.1 to 1,000 nM.

plasma stability (human) = assay type: in vitro ADME
Experimental: (§1) In vitro pharmacokinetic assays were performed according to established, in-house protocols and included: plasma stability (human), thermodynamic solubility (PBS pH 7.4, at 37° C. for 14 days), microsomal stability (human), plasma protein binding (PPB; mouse and human), and distribution coefficient (Log D). In vivo pharmacokinetic analyses were also performed at Cyprotex according to established, in-house protocols. Briefly, the peptides were dissolved in PBS and administered by single intravenous injection to CD1 male mice at the dose of 10 mg/kg (25-30 g of total body weight; n=3 mice per time point per compound). Blood samples were collected in heparinized tubes at up to 7 time points after this injection (i.e. 0.08, 0.25, 0.5, 1, 2, 4 and 8 hr), and the plasma concentrations of the test peptide were determined at each time point by LC-MS/MS, using a five-point standard curve covering a peptide concentration range from 3 to 3,000 ng/mL. Standard curves were prepared using blank plasma matrices and treated in the same manner as the test samples. […] Values were calculated from the data of the peptide plasma concentration versus time curves using a non-compartmental model analysis, as described elsewhere (Groulx, 2006; Landaw and Di Stefano 3rd, 1982). […]

thermodynamic solubility = assay type: physicochemical; conditions: PBS pH 7.4, at 37° C. for 14 days
Experimental: as §1

[3] = mouse, in vivo, iv, 10 mg/kg
Experimental: In vitro pharmacokinetic assays were performed according to established, in-house protocols and included: plasma stability (human), thermodynamic solubility (PBS pH 7.4, at 37° C. for 14 days), microsomal stability (human), plasma protein binding (PPB; mouse and human), and distribution coefficient (Log D). In vivo pharmacokinetic analyses were also performed at Cyprotex according to established, in-house protocols. Briefly, the peptides were dissolved in PBS and administered by single intravenous injection to CD1 male mice at the dose of 10 mg/kg (25-30 g of total body weight; n=3 mice per time point per compound). Blood samples were collected in heparinized tubes at up to 7 time points after this injection (i.e. 0.08, 0.25, 0.5, 1, 2, 4 and 8 hr), and the plasma concentrations of the test peptide were determined at each time point by LC-MS/MS, using a five-point standard curve covering a peptide concentration range from 3 to 3,000 ng/mL. Standard curves were prepared using blank plasma matrices and treated in the same manner as the test samples. […] Values were calculated from the data of the peptide plasma concentration versus time curves using a non-compartmental model analysis, as described elsewhere (Groulx, 2006; Landaw and Di Stefano 3rd, 1982). The doses of z-DTP2 and DTP3 predicted to achieve the therapeutic plasma concentration of 1 μM at the steady state were calculated from the measured pharmacokinetic values using the following equation: k0=k1×Vd×Cp (where Vd is expressed in L/kg; Cp is the plasma concentration at the steady state expressed in mg/L; k0 is the zero order input expressed in mg/kg/hr; k1 is the first order elimination constant [0.693/t1/2]).

Compound: CC(=O)N[C@H](Cc1ccc(O)cc1)C(=O)N[C@H](CCCNC(=N)N)C(=O)N[C@H](Cc1ccccc1)C(N)=O [DTP3, Acetyl-Tyr-Arg-Phe-NH2]
- tolerability after single administration (tolerability in mice; mice, single i.v. injection, s.c. injection or per os): excellent tolerability
- in-vivo tolerability (tolerability in mice; mouse, in vivo): excellent in-vivo tolerability
- tolerability after prolonged administration (tolerability in mice; osmotic pumps, 28 days, 14.5 mg/kg/day): excellent tolerability and lack of any apparent side effects
- efficacy in multiple myeloma cell lines resistant to dexamethasone, bortezomib and lenalidomide [1]: retained full therapeutic efficacy
- median OS [2]: > 161 days
- combination index (CI) with bortezomib (KMS-12 cells; FA 0.5, DTP3 10 nM for 6 days, bortezomib last 48 hr, Chou-Talalay): 0.56
- description of the CI (KMS-12 cells; combination with bortezomib): synergism (values between 0.3 and 0.7 denote synergism)
- stability in human serum (plasma stability (human)): very high stability
- aqueous solubility (thermodynamic solubility): high aqueous solubility
- plasma clearance (CL) compared with z-DTP2 [3]: significantly lower
- terminal half-life (t1/2) compared with z-DTP2 [3]: somewhat shorter
- volume of distribution (Vd) compared with z-DTP2 [3]: much lower
